The record followed here is US20230139171A1 (SITA Information Networking Computing UK Limited, priority 2019, published 2023).

Type in all cases: cell-based
One test concerns the target T1, human TLR9 (Homo sapiens, UniProt Q9NR96).
T1 construct: host or cells: HEK-Blue cells
T1 sequence (Q9NR96 26-1032): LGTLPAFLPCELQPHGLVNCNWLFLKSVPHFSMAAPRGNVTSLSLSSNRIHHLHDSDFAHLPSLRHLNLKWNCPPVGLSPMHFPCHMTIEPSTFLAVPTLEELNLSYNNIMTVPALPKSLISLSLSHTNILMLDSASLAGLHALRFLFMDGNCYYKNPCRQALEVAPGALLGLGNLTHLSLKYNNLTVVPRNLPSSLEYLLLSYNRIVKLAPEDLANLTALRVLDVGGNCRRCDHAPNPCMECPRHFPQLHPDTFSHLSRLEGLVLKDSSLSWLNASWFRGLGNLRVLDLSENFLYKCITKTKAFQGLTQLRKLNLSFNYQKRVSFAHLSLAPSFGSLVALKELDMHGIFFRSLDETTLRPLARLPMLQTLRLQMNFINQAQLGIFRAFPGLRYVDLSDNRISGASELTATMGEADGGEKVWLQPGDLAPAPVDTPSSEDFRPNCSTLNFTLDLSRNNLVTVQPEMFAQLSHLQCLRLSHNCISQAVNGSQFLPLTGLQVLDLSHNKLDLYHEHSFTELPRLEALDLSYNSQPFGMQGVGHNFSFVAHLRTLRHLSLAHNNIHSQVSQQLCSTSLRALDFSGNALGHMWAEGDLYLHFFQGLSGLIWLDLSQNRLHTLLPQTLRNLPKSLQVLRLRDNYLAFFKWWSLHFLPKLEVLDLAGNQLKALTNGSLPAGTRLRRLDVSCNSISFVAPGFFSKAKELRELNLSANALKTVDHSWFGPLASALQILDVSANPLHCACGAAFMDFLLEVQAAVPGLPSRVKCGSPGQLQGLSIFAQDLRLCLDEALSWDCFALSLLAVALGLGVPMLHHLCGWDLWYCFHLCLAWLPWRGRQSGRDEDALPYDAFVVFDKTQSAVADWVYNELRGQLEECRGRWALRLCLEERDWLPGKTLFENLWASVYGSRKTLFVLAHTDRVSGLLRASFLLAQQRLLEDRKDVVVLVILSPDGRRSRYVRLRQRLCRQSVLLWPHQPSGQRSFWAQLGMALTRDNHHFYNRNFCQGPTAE
Kind of test: TLR9 inhibition reporter assay (HEK-Blue cells, SEAP reporter, ODN2006 stimulation). The note with it: HEK-Blue cells overexpressing human TLR9, SEAP reporter, ODN2006 5 nM. The gist of the method:
(§1)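 Dose–response from 0.05 nM to 50 μM was run in HEK-Blue human TLR7, TLR8 and TLR9 reporter cells. After 30 min at room temperature with compound, ligand was added (TLR7 gardiquimod 7.5 μM; TLR8 R848 15.9 μM; TLR9 ODN2006 5 nM) and SEAP measured next day, at 22 h.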

The target in the next test is T2, human TLR8 (Homo sapiens, UniProt Q9NR97).
T2 construct: host or cells: HEK-Blue cells
T2 sequence (Q9NR97 27-1041): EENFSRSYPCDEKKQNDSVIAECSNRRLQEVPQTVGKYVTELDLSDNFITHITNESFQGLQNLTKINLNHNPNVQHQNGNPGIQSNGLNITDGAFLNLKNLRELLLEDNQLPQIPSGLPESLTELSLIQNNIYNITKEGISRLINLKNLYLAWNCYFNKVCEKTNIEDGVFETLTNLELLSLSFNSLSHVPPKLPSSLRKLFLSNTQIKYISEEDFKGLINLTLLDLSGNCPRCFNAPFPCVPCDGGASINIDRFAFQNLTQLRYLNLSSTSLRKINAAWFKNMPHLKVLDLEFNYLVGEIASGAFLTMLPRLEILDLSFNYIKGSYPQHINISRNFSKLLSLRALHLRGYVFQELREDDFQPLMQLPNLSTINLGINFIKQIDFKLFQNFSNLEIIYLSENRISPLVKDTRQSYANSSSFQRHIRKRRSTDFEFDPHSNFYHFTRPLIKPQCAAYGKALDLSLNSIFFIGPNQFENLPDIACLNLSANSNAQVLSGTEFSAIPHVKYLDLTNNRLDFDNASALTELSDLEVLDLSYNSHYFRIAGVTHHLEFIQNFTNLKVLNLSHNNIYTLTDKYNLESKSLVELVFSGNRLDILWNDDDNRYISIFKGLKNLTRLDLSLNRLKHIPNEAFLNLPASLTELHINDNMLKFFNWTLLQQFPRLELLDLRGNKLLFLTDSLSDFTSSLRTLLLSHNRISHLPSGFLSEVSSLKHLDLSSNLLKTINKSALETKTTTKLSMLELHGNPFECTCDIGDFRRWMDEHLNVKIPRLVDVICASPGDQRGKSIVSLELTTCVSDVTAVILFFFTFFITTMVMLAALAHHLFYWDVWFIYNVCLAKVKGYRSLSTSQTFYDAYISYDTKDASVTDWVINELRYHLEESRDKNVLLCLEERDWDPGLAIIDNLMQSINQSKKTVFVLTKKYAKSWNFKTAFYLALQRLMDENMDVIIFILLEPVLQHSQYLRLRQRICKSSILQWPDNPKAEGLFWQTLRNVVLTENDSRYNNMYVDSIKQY
The test can be described thus: TLR8 inhibition reporter assay (HEK-Blue cells, SEAP reporter, R848 stimulation). Particulars: HEK-Blue cells overexpressing human TLR8, SEAP reporter, R848 15.9 μM; read-out: TLR8 IC50. The gist of the method: as §1
For orientation: Reporter assays use an easily measured gene product as a stand-in for the process of interest.

The next test has as its target T3, human TLR7 (Homo sapiens, UniProt Q9NYK1).
T3 construct: host or cells: HEK-Blue cells
T3 sequence (Q9NYK1 27-1049): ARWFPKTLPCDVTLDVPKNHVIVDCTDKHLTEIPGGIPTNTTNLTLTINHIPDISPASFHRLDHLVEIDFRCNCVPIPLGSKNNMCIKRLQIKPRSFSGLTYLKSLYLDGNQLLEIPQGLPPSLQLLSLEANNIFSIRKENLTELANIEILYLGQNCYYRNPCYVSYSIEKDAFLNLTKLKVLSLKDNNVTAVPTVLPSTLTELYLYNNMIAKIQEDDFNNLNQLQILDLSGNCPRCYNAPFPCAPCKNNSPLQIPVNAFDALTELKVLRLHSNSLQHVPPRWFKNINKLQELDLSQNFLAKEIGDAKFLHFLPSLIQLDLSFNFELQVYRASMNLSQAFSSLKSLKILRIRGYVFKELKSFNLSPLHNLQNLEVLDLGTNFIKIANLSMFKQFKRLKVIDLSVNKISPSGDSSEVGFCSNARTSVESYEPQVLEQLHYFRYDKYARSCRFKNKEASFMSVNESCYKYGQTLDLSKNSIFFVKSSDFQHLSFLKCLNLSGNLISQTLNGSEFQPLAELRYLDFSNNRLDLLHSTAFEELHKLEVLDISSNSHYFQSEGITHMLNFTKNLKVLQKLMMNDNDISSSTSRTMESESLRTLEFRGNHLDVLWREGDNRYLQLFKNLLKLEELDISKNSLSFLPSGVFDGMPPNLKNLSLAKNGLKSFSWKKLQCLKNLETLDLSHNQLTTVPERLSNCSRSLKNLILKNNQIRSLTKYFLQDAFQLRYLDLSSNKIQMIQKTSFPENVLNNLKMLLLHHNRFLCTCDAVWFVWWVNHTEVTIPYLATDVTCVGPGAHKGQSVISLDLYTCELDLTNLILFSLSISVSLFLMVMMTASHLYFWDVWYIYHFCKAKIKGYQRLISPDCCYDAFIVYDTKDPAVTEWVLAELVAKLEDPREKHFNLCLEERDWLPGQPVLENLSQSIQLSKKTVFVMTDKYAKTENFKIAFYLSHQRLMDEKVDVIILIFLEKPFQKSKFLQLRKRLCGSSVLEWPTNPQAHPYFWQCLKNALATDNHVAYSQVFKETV
Kind of test: TLR7 inhibition reporter assay (HEK-Blue cells, SEAP reporter, gardiquimod stimulation). The note with it: HEK-Blue cells overexpressing human TLR7, SEAP reporter, gardiquimod 7.5 μM; read-out: TLR7 IC50. The gist of the method: as §1

Counter-ions that a name gives are not always drawn.

The term IC50 denotes the concentration at which inhibition is half-maximal. Consider `Cc1c(-c2[nH]c3sc(N4CCC(NCC5(C)COC5)CC4)nc3c2C(C)C)cn2ncnc2c1C` [Example 295, 1-(5-(7,8-dimethyl-[1,2,4]triazolo[1,5-a]pyridin-6-yl)-6-isopropyl-4H-pyrrolo[3,2-d]thiazol-2-yl)-N-((3-methyloxetan-3-yl)methyl) piperidin-4-amine], for which the IC50 on human TLR9 was 9710 nM; on human TLR8, 0.28 nM; at human TLR7, 4.94 nM.
Regarding `Cc1c(-c2[nH]c3sc(N4CCC(NC5COC5)CC4)nc3c2C(C)C)cn2ncnc2c1C` [Example 296, 1-(5-(7,8-dimethyl-[1,2,4]triazolo[1,5-a]pyridin-6-yl)-6-isopropyl-4H-pyrrolo[3,2-d]thiazol-2-yl)-N-(oxetan-3-yl)piperidin-4-amine], the IC50 against human TLR9 worked out at 33800 nM; on human TLR8, 0.73 nM; on human TLR7, 3.45 nM.
As for `Cc1c(-c2[nH]c3sc(N4CCC(NC(C)C)CC4)nc3c2C(C)C)cn2ncnc2c1C` [Example 297, 1-(5-(7,8-dimethyl-[1,2,4]triazolo[1,5-a]pyridin-6-yl)-6-isopropyl-4H-pyrrolo[3,2-d]thiazol-2-yl)-N-isopropylpiperidin-4-amine], the IC50 against human TLR9 turned out to be 8910 nM; at human TLR8, 0.27 nM; at human TLR7, 2.25 nM.
In the same order, the values of `CCN(C)C1CCN(c2nc3c(C(C)C)c(-c4cn5ncnc5c(C)c4C)[nH]c3s2)CC1` [Example 298, 1-(5-(7,8-dimethyl-[1,2,4]triazolo[1,5-a]pyridin-6-yl)-6-isopropyl-4H-pyrrolo[3,2-d]thiazol-2-yl)-N-ethyl-N-methylpiperidin-4-amine] are 7410 nM, 0.43 nM and 1.56 nM.
With `Cc1c(-c2[nH]c3sc(N4CCC(N)CC4)nc3c2C(C)C)cn2ncnc2c1C` [Example 299, 1-(5-(7,8-dimethyl-[1,2,4]triazolo[1,5-a]pyridin-6-yl)-6-isopropyl-4H-pyrrolo[3,2-d]thiazol-2-yl)piperidin-4-amine], the results for the IC50 on human TLR9, at human TLR8 and at human TLR7 were 12700 nM, 0.72 nM and 1.42 nM, respectively.
On to `Cc1c(-c2[nH]c3sc(N4CC5(CN(CC(C)C)C5)C4)nc3c2C(C)C)cn2ncnc2c1C` [Example 300, 5-(7,8-dimethyl-[1,2,4]triazolo[1,5-a]pyridin-6-yl)-2-(6-isobutyl-2,6-diazaspiro[3.3]heptan-2-yl)-6-isopropyl-4H-pyrrolo[3,2-d]thiazole], for which the IC50 amounted to 10100 nM at human TLR9, 3.24 nM on human TLR8 and 10.7 nM on human TLR7.
Regarding `Cc1c(-c2[nH]c3sc(N4CC5(CN(CC6CCOCC6)C5)C4)nc3c2C(C)C)cn2ncnc2c1C` [Example 301, 5-(7,8-dimethyl-[1,2,4]triazolo[1,5-a]pyridin-6-yl)-6-isopropyl-2-(6-((tetrahydro-2H-pyran-4-yl)methyl)-2,6-diazaspiro[3.3]heptan-2-yl)-4H-pyrrolo[3,2-d]thiazole], the IC50 against human TLR9 worked out at 12300 nM; on human TLR8 it was 1.53 nM; on human TLR7, 7.77 nM.
In the same order, the values of `Cc1c(-c2[nH]c3sc(N4CC5(CN(CC(C)(C)O)C5)C4)nc3c2C(C)C)cn2ncnc2c1C` [Example 303, 1-(6-(5-(7,8-dimethyl-[1,2,4]triazolo[1,5-a]pyridin-6-yl)-6-isopropyl-4H-pyrrolo[3,2-d]thiazol-2-yl)-2,6-diazaspiro[3.3]heptan-2-yl)-2-methylpropan-2-ol] are 26400 nM, 0.93 nM and 7.99 nM.
Regarding `Cc1c(-c2[nH]c3sc(N4CC5(CN(CCS(C)(=O)=O)C5)C4)nc3c2C(C)C)cn2ncnc2c1C` [Example 304, 5-(7,8-dimethyl-[1,2,4]triazolo[1,5-a]pyridin-6-yl)-6-isopropyl-2-(6-(2-(methylsulfonyl)ethyl)-2,6-diazaspiro[3.3]heptan-2-yl)-4H-pyrrolo[3,2-d]thiazole], the IC50 against human TLR9 was found to be 35600 nM; on human TLR8, 19.2 nM; on human TLR7 it was 8.2 nM.
As to `Cc1c(-c2[nH]c3sc(N4CCNC[C@H]4C)nc3c2C(C)C)cn2ncnc2c1C` [Example 308, (R)-5-(7,8-dimethyl-[1,2,4]triazolo[1,5-a]pyridin-6-yl)-6-isopropyl-2-(2-methylpiperazin-1-yl)-4H-pyrrolo[3,2-d]thiazole, HCl], the IC50 on human TLR9 was determined as 15800 nM; at human TLR8, 0.09 nM; at human TLR7, 0.18 nM.
Turning to `Cc1c(-c2[nH]c3sc(N4C[C@@H](C)NC[C@@H]4C)nc3c2C(C)C)cn2ncnc2c1C` [Example 309, 5-(7,8-dimethyl-[1,2,4]triazolo[1,5-a]pyridin-6-yl)-2-((2S,5R)-2,5-dimethylpiperazin-1-yl)-6-isopropyl-4H-pyrrolo[3,2-d]thiazole], the results for the half-inhibitory concentration (IC50) on human TLR9, on human TLR8 and at human TLR7 were 14400 nM, 4.19 nM and 6.67 nM, respectively.
